Assay results as given in patent US20110111976A1, “MICRORNA BIOMARKERS OF TISSUE INJURY” (priority 2008, published 2011).
Several values for one entry are separate records, joined by “and”; a condition that tells them apart may be missing. Identical values can stand only once.

Assays:
[1] = system: Sprague-Dawley rats; assay: Liver histopathology scores of toxicant-treated rats; format: in vivo, rat; conditions: TMPD-treated rats
Experimental: (§1) To follow up on the initial results shown in Example 2, blood samples from 44 individual rats that had been treated with varying doses of CBrCl3, CCl4 (another liver toxicant), or TMPD were evaluated using qPCR of miR-122 and miR-133. In addition, data from histopathology and a panel of standard biomarkers (ALT, AST, CK, skTnI, etc.) were also available for these same individual rats and were used to compare the results from microRNA assays with the standard histopathology and protein biomarkers.
(§2) Animals Male and female Sprague-Dawley rats were obtained from Charles River Laboratories, Inc. (Raleigh, N.C.). The rats were approximately seven to eight weeks of age and weighed from 125 to 325 grams at the start of the study. The animals were acclimated for approximately one week and randomized into treatment and control groups. During the toxicity studies targeting liver, the animals were maintained on a caloric-restricted diet, and fasted overnight prior to necropsy. Doses were different for each model compound tested and were calculated based on animal body weight. For the compounds, routes of administration, dose groups, and time points, see the below compound section.
(§3) Liver Toxicant • Trichlorobromomethane (CCl3Br) • Doses: 0.03, 0.1 ml/kg • Dosing: 100% liquid paraffin by oral gavage • Animals: Sprague Dawley Male Rats • Time Point: CCl3Br Plasma (Days 2 & 4) and Controls (4 controls, 3 samples per group, 100 μl each) • Carbon Tetrachloride (CCl4) • Doses: 0.03, 0.1, 0.3 ml/kg • Dosing: 100% liquid paraffin by oral gavage • Animals: Sprague Dawley Male Rats • Time Point: CCl4 Plasma (Days 2) and Controls (4 samples per group, 100 μl each)

[2] = system: Sprague-Dawley rats; assay: Individual sample study: miR-133 in blood plasma of toxicant-treated rats by qPCR; format: in vivo, rat; conditions: Day 2, plasma, individual male rats
Experimental: as §1, §2
(§4) Skeletal Muscle Toxicant • 2,3,5,6-tetramethyl-p phenylenediamine (TMPD) • Doses: 2, 4 mg/kg bid • Dosing: 0.9% NaCl by subcutaneous injection • Animals: Sprague Dawley Male Rats • Time Points: TMPD Plasma (Day 2) and Controls (5 samples per group, […] pooled=500 μl total).
as §3
(§5) Plasma Samples All plasma samples were collected in EDTA tubes at final necropsy from the vena cava. Samples were inverted several times, and centrifuged for 20 minutes at 2,900 RPM at 4° C. Plasma samples were removed and stored at −70° C. Pooled blood plasma samples from rat toxicology studies were analyzed using a qPCR-based assay (Raymond et al, 2005, RNA 11:1737; WO 2006/081282). Control slope and intercept values for miR-122 and miR-133 were calculated from a concentration series of each microRNA added to total yeast RNA and then analyzed using the qPCR assay for each miRNA. The slope and intercept values from the standard curve were used to calculate the amount of each respective miRNA in each sample expressed as the number of miRNA copies per 20 ng of total RNA in each sample. Cycle threshold values (Ct) for each sample were converted to miRNA copy numbers by comparison to standard curves generated using single stranded mature miRNAs and are expressed in Table 4 as copies/20 pg input RNA (approximately equivalent to copies/cell).

[3] = system: Sprague-Dawley rats; assay: Muscle histopathology (quad, soleus) of TMPD-treated rats; format: in vivo, rat; parameters: key: 1 = very slight; 2 = slight or small; 3 = moderate; 4 = marked; 5 = severe tissue injury; conditions: Day 2, individual male rats
Experimental: as §1, §2, §4

[4] = system: Sprague-Dawley rats; assay: Individual sample study: miR-122 in blood plasma of toxicant-treated rats by qPCR; format: in vivo, rat; conditions: Day 2, plasma, individual male rats
Experimental: as §1, §2, §4, §3, §5

[5] = system: Sprague-Dawley rats; assay: Pooled sample study: miR-122 in blood plasma of toxicant-treated rats by qPCR; format: in vivo; conditions: pooled rat plasma (5 samples), cerivastatin 1.0 mg/kg/day oral Day 14, CBrCl3 0.1 ml/kg oral Days 2 & 4, TMPD 6 mg/kg bid s.c. Day 3
Experimental: (§6) To explore the feasibility of detecting miRNA tissue injury biomarkers in plasma, a pilot study was performed in which pooled blood plasma samples from rat toxicology studies were analyzed using a qPCR-based assay (Raymond et at, 2005, RNA 11:1737; WO 2006/081282). The miRNAs miR-122 and miR-133 were chosen for quantification because they are extremely abundant and specific to liver and muscle, respectively (FIG. 1). Stored plasma samples from rats that had previously been treated with a liver damaging agent trichlorobromomethane (CBrCl3) or with one of two muscle damaging agents 2,3,5,6-tetramethyl-p phenylenediamine (TMPD) or cerivastatin) were assayed form miRNA levels using qPCR.
as §2
(§7) Skeletal Muscle Toxicant • 2,3,5,6-tetramethyl-p phenylenediamine (TMPD) • Doses: 6 mg/kg bid • Dosing: 0.9% NaCl by subcutaneous injection • Animals: Sprague Dawley Male Rats • Time Points Day 3, TMPD Plasma (Day 3) and Controls (5 samples, 100 ul each pooled=500 ul total).
(§8) Liver Toxicant • Trichlorbromomethane (CCl3Br) • Doses: 0.1 ml/kg • Dosing: 100% liquid paraffin by oral gavage • Animals: Sprague Dawley Male Rats • Time Point: Day 2, 4 CCl3Br Plasma (Days 2 & 4) and Controls (5 samples, 100 ul each pooled=500 ul total)
(§9) Liver and Muscle Toxicant • Cerivastatin • Doses: 1.0 mg/kg/day • Dosing: 0.5% methylcellulose by oral gavage • Animals: Sprague Dawley Female Rats • Time Point Day 14 Cerivastatin Plasma (Day 14) and Controls (5 samples, 100 ul each pooled=500 μl total)
as §5, with “expressed” for “expressed in Table 4”

[6] = system: Sprague-Dawley rats; assay: Pooled sample study: miR-133 in blood plasma of toxicant-treated rats by qPCR; format: in vivo; conditions: pooled rat plasma (5 samples), cerivastatin 1.0 mg/kg/day oral Day 14, CBrCl3 0.1 ml/kg oral Days 2 & 4, TMPD 6 mg/kg bid s.c. Day 3
Experimental: as §6, §2, §7, §8, §9
as §5, with “expressed” for “expressed in Table 4”

[7] = system: Sprague-Dawley rats; assay: Clinical chemistry (AST, ALT, CK) in blood plasma of toxicant-treated rats; format: in vivo, rat; conditions: for ALT / AST / CK: Day 2, plasma, individual male rats
Experimental: as §1, §2, §4, §3

[8] = system: Sprague-Dawley rats; assay: miR-10a in urine of kidney-toxicant-treated rats by qPCR; format: in vivo, rat; conditions: Gentamicin 240 mg/kg/day intraperitoneal, individual male rats
From the text: as §2, with “targeting kidney,” for “targeting liver,”, “below Test Compound” for “below compound”
Urine Samples Urine samples were collected overnight on either dry or wet ice, aliquoted, and stored at −70° C. […] Urine samples were thawed on ice and about 1 milliliter (ml) of each sample placed into a tube. Each sample was placed in a room temperature speed-vac to reduce sample volume to about 200 microliters (μl). About 1 ml of trizol was added to the viscous concentrated urine solution and RNA extracted using Ambion BlycoBlue and alcohol precipitation.
Samples from rat toxicology studies were analyzed for miRNA levels using a qPCR-based assay (Raymond et al, 2005, RNA 11:1737; WO 2006/081282). Control slope and intercept values for miR-10a was calculated from a concentration series of miR-10a added to total yeast RNA and then analyzed using the qPCR assay. The slope and intercept values from the standard curve were used to calculate the amount of miR-10a in each sample expressed as the number of miRNA copies per 20 ng of total RNA in each sample. Cycle threshold values (Ct) for each sample were converted to miRNA copy numbers by comparison to a standard curve generated using single stranded mature miR-10a and are expressed in Table 7 as copies/20 pg input RNA (approximately equivalent to copies/cell).

[9] = system: Sprague-Dawley rats; assay: Kidney histopathology (proximal tubule overall tissue injury) of toxicant-treated rats; format: in vivo, rat; conditions: Gentamicin 240 mg/kg/day intraperitoneal, Day 12, individual male rats
From the text: as §2, with “targeting kidney,” for “targeting liver,”, “below Test Compound” for “below compound”

## Cc1c(C)c(N)c(C)c(C)c1N [TMPD, 2,3,5,6-tetramethyl-p phenylenediamine]
[1]
  liver histopathology: no liver histopathology has been observed
[2]; TMPD 2 mg/kg bid subcutaneous
  miR-133: 0.9 copies/20 pg input RNA and 4.3 copies/20 pg input RNA and 9.3 copies/20 pg input RNA and 1.3 copies/20 pg input RNA and 4.1 copies/20 pg input RNA
[2]; TMPD 4 mg/kg bid subcutaneous
  miR-133: 19.3 copies/20 pg input RNA and 63.9 copies/20 pg input RNA and 79.3 copies/20 pg input RNA and 63.8 copies/20 pg input RNA and 16.7 copies/20 pg input RNA
[3]; TMPD 2 mg/kg bid subcutaneous
  Muscle Histopathology Quad (Overall Damage): 0 (4×) and 1
  Muscle Histopathology Soleus (Overall Damage): 0
[3]; TMPD 4 mg/kg bid subcutaneous
  Muscle Histopathology Quad (Overall Damage): 1 (3×) and 2 (2×)
  Muscle Histopathology Soleus (Overall Damage): 1 (3×) and 0 (2×)
[4]; TMPD 2 mg/kg bid subcutaneous
  miR-122: 2.6 copies/20 pg input RNA and 5.6 copies/20 pg input RNA and 7.3 copies/20 pg input RNA and 0.8 copies/20 pg input RNA and 2.2 copies/20 pg input RNA
[4]; TMPD 4 mg/kg bid subcutaneous
  miR-122: 9.5 copies/20 pg input RNA and 1.8 copies/20 pg input RNA and 15.7 copies/20 pg input RNA and 11.7 copies/20 pg input RNA and 3.2 copies/20 pg input RNA
[5]; 250 ng total RNA input
  miR-122 Copies: 89353.3
  miR-122 Ct Mean: 26.2479
[5]
  miR-122 Copies/20 pg: 7.1 Copies/20 pg
[6]; 250 ng total RNA input
  miR-133 Copies: 4753175
  miR-133 Ct Mean: 23.7323
[6]
  miR-133 Copies/20 pg: 380.3 Copies/20 pg
[7]; TMPD 2 mg/kg bid subcutaneous
  ALT: 29 U/L and 36 U/L and 37 U/L and 27 U/L and 30 U/L
  AST: 120 U/L and 164 U/L and 203 U/L and 111 U/L and 167 U/L
  CK: 424 U/L and 695 U/L and 696 U/L and 450 U/L and 463 U/L
[7]; TMPD 4 mg/kg bid subcutaneous
  ALT: 60 U/L and 133 U/L and 215 U/L and 94 U/L and 56 U/L
  AST: 357 U/L and 1250 U/L and 1740 U/L and 700 U/L and 501 U/L
  CK: 363 U/L and 767 U/L and 1252 U/L and 439 U/L and 343 U/L
[7]; rats dosed with TMPD, plasma
  ALT versus controls: significantly elevated
  AST versus controls: significantly elevated

## Gentamicin
[8]; Day 3, urine
  miR-10a: 11.98 copies/20 pg input RNA and 3.51 copies/20 pg input RNA and 0.03 copies/20 pg input RNA and 0.05 copies/20 pg input RNA and 10.00 copies/20 pg input RNA
[8]; Day 9, urine
  miR-10a: 0.96 copies/20 pg input RNA and 0.64 copies/20 pg input RNA and 16.88 copies/20 pg input RNA and 51.03 copies/20 pg input RNA and 6.61 copies/20 pg input RNA and 4.90 copies/20 pg input RNA and 58.70 copies/20 pg input RNA and 38.01 copies/20 pg input RNA and 25.61 copies/20 pg input RNA
[8]; Day 12, urine
  miR-10a: 3.5 copies/20 pg input RNA and 9.46 copies/20 pg input RNA and 4.17 copies/20 pg input RNA and 2.13 copies/20 pg input RNA and 4.99 copies/20 pg input RNA and 3.46 copies/20 pg input RNA and 3.86 copies/20 pg input RNA and 23.75 copies/20 pg input RNA and 10.40 copies/20 pg input RNA
[9]
  Kidney Histopathology: Proximal tubule overall tissue injury (highest severity grade measured at Day 12): 5
